How the values were obtained:
[1] = clinical; conditions: male, human, in vivo
Source text: Healthy male subjects were divided into two groups. Group A received a 2 g azithromycin dose administered directly into the duodenum as a solution via a nasoenteric tube. Group B received the same azithromycin solution dose, administered directly into the ileocecal region of the small intestine via a nasoenteric tube. The nasoenteric tube was a single lumen, 4.5 meter tube with a side port for delivery of drug. Placement of the tube for duodenal and ileocecal delivery was confirmed by fluoroscopy. Infusions to the duodenum or ileocecal region were administered at a concentration of 40 mg/ml within 5 minutes. All subjects were dosed after an overnight fast. Subjects were randomized to receive azithromycin and placebo via nasoenteric tube and intravenous infusion in a double-blind, placebo controlled fashion.
Blood samples were withdrawn prior to dosing, and at 0.08, 0.17, 0.33, 0.66, 1, 2, 4, 8, 12, 24, 48, 72, and 96 hr post-dosing. Serum azithromycin concentrations were determined using the high performance liquid chromatography assay described in Shepard et al., J. Chromatography, 565: 321–337, (1991). Total systemic exposure to azithromycin was determined by measuring the area under the serum azithromycin concentration vs. time curve (AUC) for each subject in a given group, and then by calculating a mean AUC for the group. Cmax is the highest serum azithromycin concentration achieved in a subject. Tmax is the time at which Cmax is achieved. In one leg of this study, all subjects received an intravenous 2g azithromycin dose. The intravenous AUC was determined in order to calculate the absolute duodenal and ileocecal bioavailabilities, as described below.

[2] = cited from earlier work
[3] = Visual Analogue Scale gastrointestinal side effects after 2 hr intravenous infusion (Example 3); type: in vivo, human; parameters: key to Mean Cumulative Score (Visual Analogue Scale), abdominal pain / Mean Cumulative Score (Visual Analogue Scale), nausea / Mean Cumulative Score (Visual Analogue Scale), regurgitation / Mean Cumulative Score (Visual Analogue Scale), abdominal cramping: sum over 240 h of 0–10 VAS severity scores, averaged per subject; conditions: not corrected for placebo effects; for Incidence of Visual-Analogue-Scale score >1, abdominal cramping / Incidence of Visual-Analogue-Scale score >1, abdominal pain / Incidence of Visual-Analogue-Scale score >1, nausea / Incidence of Visual-Analogue-Scale score >1, regurgitation / Incidence of Visual-Analogue-Scale score >4, abdominal cramping / Incidence of Visual-Analogue-Scale score >4, abdominal pain / Incidence of Visual-Analogue-Scale score >4, nausea / Incidence of Visual-Analogue-Scale score >4, regurgitation: any time during 240 hour post-dose; for Mean Cumulative Score (Visual Analogue Scale), abdominal cramping / Mean Cumulative Score (Visual Analogue Scale), abdominal pain / Mean Cumulative Score (Visual Analogue Scale), nausea / Mean Cumulative Score (Visual Analogue Scale), regurgitation: entire 240 hour post-dose period
Experimental: Healthy male subjects were divided into four groups. Group A received a 2 hr intravenous infusion of a placebo solution (0 g azithromycin). Group B received a 2 hr intravenous infusion of a 1 g dose of azithromycin. Group C received a 2 hr intravenous infusion of a 2 g dose of azithromycin. Group D received a 2 hr intravenous infusion of a 4 g dose of azithromycin. […] All subjects were dosed after an overnight fast.
Prior to dosing and each blood sampling time, each subject filled out a questionnaire, which consisted of a series of “Visual Analogue Scales” in which the subject was required to rate, on a scale of 0–10, the severity of certain potential side effects. The subjects were instructed that “0” indicated an absent effect and “10” indicated the worst possible effect. The subjects were instructed to interpolate between 0 and 10 for moderate side effects.
Analysis of side effect visual-analogue-scale data was carried out in two formats. In the first format (Table VIII), the analysis concentrated on the general incidence of side effects of a particular type. For each side effect type (e.g., abdominal pain), Table VIII reports the number of subjects who reported a score >1 at any time during the 240 hr post-dosing, and the number of subjects who reported a score >4 at any time during the 240 hr post-dosing. This analysis assumes that all […] represent a real side effect occurrence, however mild or severe. A score >4 is presumed to reflect a moderate-to-severe side effect occurrence.
In the second format (Table IX), the analysis reflects the general severity and duration of side effects. For a particular side effect (e.g., Abdominal Pain) in a particular subject, all visual-analogue-scale scores (over the 240 hr post-dose period) were summed to give a “cumulative score” over the entire time period of evaluation. “Cumulative scores” for all members of a treatment group were summed, and divided by the number of subjects in the group, to a give a Mean Cumulative Score. […] Table IX presents Mean Cumulative Scores for abdominal pain, nausea, regurgitation, and abdominal cramping.

[4] = Recovery of azithromycin in ileostomy fluid after IV infusion in ileostomy subjects; type: in vivo, human; conditions: 500 mg IV infusion over 1 hr, twelve ileostomy subjects, 24 hr following dose
Source text: A 2.0 g intravenous azithromycin dose is equivalent to a 5.4 g oral azithromycin dose, from the standpoint of equivalent systemic drug exposure. At an even higher intravenous dose, a higher side effect incidence is observed. While GI side effects can be elicited by high intravenous doses, these observations are consistent with the statement that azithromycin GI side effects are mediated by direct contact of the drug with the intestinal wall in the lumen, based upon the following additional study. Twelve ileostomy subjects were administered an IV infusion of 500 mg azithromycin over 1 hr. Serum was collected predose and at 0.17, 0.33, 0.5, 1, 2, 4, 8, 12, 24, 48, 72, 96, 120, and 144 hr following initiation, of the infusion. In addition, the contents of the subjects' ileostomy bags were collected for the following intervals: 12 hr predose, 0–6 hr post-dose, 6–12 hr post-dose, and 12–24 hr post-dose. The serum and ileostomy fluid concentrations of azithromycin were assayed. […] Thus it is not surprising that high intravenous doses of azithromycin can cause gastrointestinal side effects, since a portion of the IV dose partitions into the lumen of the small intestine.

AUC0–96 [1]: 14500 ng·h/mL
bioavailability [1]: 39.1%
bioavailability for duodenal dosing (AUCduodenal/AUCIV×100) [1]: 43.8%
overall systemic exposure (AUC) lower for ileocecal dosing compared with duodenal dosing [1]: 15%
AUC(0-t) ([1]; AUC0–96): 17000 ng·h/mL
dose recovered intact in the ileostomy fluid [4]: 13%
SMILES: CC[C@H]1OC(=O)[C@H](C)[C@@H](O[C@H]2C[C@@](C)(OC)[C@@H](O)[C@H](C)O2)[C@H](C)[C@@H](O[C@@H]2O[C@H](C)C[C@H](N(C)C)[C@H]2O)[C@](C)(O)C[C@@H](C)CN(C)[C@H](C)[C@@H](O)[C@]1(C)O [azithromycin, 9a-aza-9a-methyl-9-deoxo-9a-homoerythromycin A]
oral bioavailability of an azithromycin capsule ([2]; typical value): about 38%
oral bioavailability ([2]; used to convert intravenous to equivalent oral doses): 37%
Incidence of Visual-Analogue-Scale score >1, abdominal cramping ([3]; 1 g IV over 2 hr): 0/5
Incidence of Visual-Analogue-Scale score >1, abdominal pain ([3]; 1 g IV over 2 hr): 1/5
Incidence of Visual-Analogue-Scale score >1, nausea ([3]; 1 g IV over 2 hr): 0/5
Incidence of Visual-Analogue-Scale score >1, regurgitation ([3]; 1 g IV over 2 hr): 0/5
Incidence of Visual-Analogue-Scale score >4, abdominal cramping ([3]; 1 g IV over 2 hr): 0/5
Incidence of Visual-Analogue-Scale score >4, abdominal pain ([3]; 1 g IV over 2 hr): 0/5
Incidence of Visual-Analogue-Scale score >4, nausea ([3]; 1 g IV over 2 hr): 0/5
Incidence of Visual-Analogue-Scale score >4, regurgitation ([3]; 1 g IV over 2 hr): 0/5
Mean Cumulative Score (Visual Analogue Scale), abdominal cramping ([3]; 1.0 g IV, n 6): 0.5
Mean Cumulative Score (Visual Analogue Scale), abdominal pain ([3]; 1.0 g IV, n 6): 1.5
Mean Cumulative Score (Visual Analogue Scale), nausea ([3]; 1.0 g IV, n 6): 0
Mean Cumulative Score (Visual Analogue Scale), regurgitation ([3]; 1.0 g IV, n 6): 0
Incidence of Visual-Analogue-Scale score >1, abdominal cramping ([3]; 2 g IV over 2 hr): 1/6
Incidence of Visual-Analogue-Scale score >1, abdominal pain ([3]; 2 g IV over 2 hr): 2/6
Incidence of Visual-Analogue-Scale score >1, nausea ([3]; 2 g IV over 2 hr): 4/6
Incidence of Visual-Analogue-Scale score >1, regurgitation ([3]; 2 g IV over 2 hr): 1/6
Incidence of Visual-Analogue-Scale score >4, abdominal cramping ([3]; 2 g IV over 2 hr): 1/6
Incidence of Visual-Analogue-Scale score >4, abdominal pain ([3]; 2 g IV over 2 hr): 1/6
Incidence of Visual-Analogue-Scale score >4, nausea ([3]; 2 g IV over 2 hr): 2/6
Incidence of Visual-Analogue-Scale score >4, regurgitation ([3]; 2 g IV over 2 hr): 0/6
Mean Cumulative Score (Visual Analogue Scale), abdominal cramping ([3]; 2.0 g IV, n 6): 3.8
Mean Cumulative Score (Visual Analogue Scale), abdominal pain ([3]; 2.0 g IV, n 6): 5.7
Mean Cumulative Score (Visual Analogue Scale), nausea ([3]; 2.0 g IV, n 6): 13.2
Mean Cumulative Score (Visual Analogue Scale), regurgitation ([3]; 2.0 g IV, n 6): 0.5
Incidence of Visual-Analogue-Scale score >1, abdominal cramping ([3]; 4 g IV over 2 hr): 4/5
Incidence of Visual-Analogue-Scale score >1, abdominal pain ([3]; 4 g IV over 2 hr): 4/5
Incidence of Visual-Analogue-Scale score >1, nausea ([3]; 4 g IV over 2 hr): 3/5
Incidence of Visual-Analogue-Scale score >1, regurgitation ([3]; 4 g IV over 2 hr): 1/5
Incidence of Visual-Analogue-Scale score >4, abdominal cramping ([3]; 4 g IV over 2 hr): 2/5
Incidence of Visual-Analogue-Scale score >4, abdominal pain ([3]; 4 g IV over 2 hr): 0/5
Incidence of Visual-Analogue-Scale score >4, nausea ([3]; 4 g IV over 2 hr): 2/5
Incidence of Visual-Analogue-Scale score >4, regurgitation ([3]; 4 g IV over 2 hr): 1/5
Mean Cumulative Score (Visual Analogue Scale), abdominal cramping ([3]; 4.0 g IV, n 5): 11.8
Mean Cumulative Score (Visual Analogue Scale), abdominal pain ([3]; 4.0 g IV, n 5): 12.8
Mean Cumulative Score (Visual Analogue Scale), nausea ([3]; 4.0 g IV, n 5): 10.6
Mean Cumulative Score (Visual Analogue Scale), regurgitation ([3]; 4.0 g IV, n 5): 3.8
